Results from ChEMBL document CHEMBL1201862, “PubChem BioAssay data set” (2004).
Activity calls are given as the source filed them. Cut-off read from the data, not from the text of the source, for most assays here: actives have a measured IC50 and inactives only a lower limit.

What was measured:
[1] = biological target: T1, Sentrin-specific protease 8 (Homo sapiens, UniProt Q96LD8); assay: SENP8 protease inhibitors, SAR follow-up, biochemical, luminescence, set 2 (AID 588601); format: functional
T1 sequence (Q96LD8 whole entry): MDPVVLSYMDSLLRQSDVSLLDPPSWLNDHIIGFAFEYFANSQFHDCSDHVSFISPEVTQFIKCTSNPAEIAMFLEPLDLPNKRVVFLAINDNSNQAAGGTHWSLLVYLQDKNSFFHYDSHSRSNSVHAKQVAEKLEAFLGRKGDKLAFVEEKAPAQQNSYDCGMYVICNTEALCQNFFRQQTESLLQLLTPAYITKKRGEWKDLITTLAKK

Caspase-3 [2] = biological target: T2, Caspase-3 (Homo sapiens, UniProt P42574); assay: caspase-3 inhibitors as off-family protease, SAR follow-up, selectivity assay for SENP protease inhibitor project, biochemical, luminescence, set 2 (AID 588599); format: functional
T2 sequence (P42574 whole entry): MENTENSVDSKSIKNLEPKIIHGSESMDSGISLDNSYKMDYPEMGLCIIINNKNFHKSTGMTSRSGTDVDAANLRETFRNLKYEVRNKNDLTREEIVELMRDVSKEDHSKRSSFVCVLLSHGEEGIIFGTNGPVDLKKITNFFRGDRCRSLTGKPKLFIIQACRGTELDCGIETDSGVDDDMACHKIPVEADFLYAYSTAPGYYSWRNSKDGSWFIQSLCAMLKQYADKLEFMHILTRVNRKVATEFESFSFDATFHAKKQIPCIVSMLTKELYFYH

[3] = biological target: T3, Sentrin-specific protease 7 (Homo sapiens, UniProt Q9BQF6); assay: SENP7 protease inhibitors, SAR follow-up, biochemical, luminescence, set 2 (AID 588600); format: functional
T3 sequence (Q9BQF6 whole entry): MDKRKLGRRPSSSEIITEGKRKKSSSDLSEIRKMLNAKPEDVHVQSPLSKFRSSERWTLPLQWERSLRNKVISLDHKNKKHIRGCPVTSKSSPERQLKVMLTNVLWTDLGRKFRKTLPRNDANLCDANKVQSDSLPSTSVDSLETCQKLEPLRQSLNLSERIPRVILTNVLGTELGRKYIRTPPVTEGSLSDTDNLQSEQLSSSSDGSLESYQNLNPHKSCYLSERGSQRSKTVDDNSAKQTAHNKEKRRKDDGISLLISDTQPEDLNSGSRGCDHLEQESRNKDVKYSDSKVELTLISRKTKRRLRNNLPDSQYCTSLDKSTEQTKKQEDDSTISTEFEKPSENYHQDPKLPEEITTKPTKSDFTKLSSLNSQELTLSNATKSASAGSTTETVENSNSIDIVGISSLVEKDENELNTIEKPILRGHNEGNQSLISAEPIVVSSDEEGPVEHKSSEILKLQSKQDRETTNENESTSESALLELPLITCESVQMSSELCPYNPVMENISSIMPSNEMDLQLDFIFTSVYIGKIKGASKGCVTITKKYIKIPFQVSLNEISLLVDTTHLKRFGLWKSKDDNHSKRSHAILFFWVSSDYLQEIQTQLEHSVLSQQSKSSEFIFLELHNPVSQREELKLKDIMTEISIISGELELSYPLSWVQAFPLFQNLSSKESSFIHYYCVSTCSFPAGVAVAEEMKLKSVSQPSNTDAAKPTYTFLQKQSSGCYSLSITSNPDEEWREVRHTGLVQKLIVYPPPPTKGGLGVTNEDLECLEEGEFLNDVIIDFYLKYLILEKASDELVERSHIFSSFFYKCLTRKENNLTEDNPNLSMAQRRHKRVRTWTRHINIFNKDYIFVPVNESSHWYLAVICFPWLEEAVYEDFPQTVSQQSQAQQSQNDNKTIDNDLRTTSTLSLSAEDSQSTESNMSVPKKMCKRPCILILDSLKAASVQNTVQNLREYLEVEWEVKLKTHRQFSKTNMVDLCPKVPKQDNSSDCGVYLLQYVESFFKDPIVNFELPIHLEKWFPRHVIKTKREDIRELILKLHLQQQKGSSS

[4] = biological target: T4, Sentrin-specific protease 6 (Homo sapiens, UniProt Q9GZR1); assay: SENP6 protease inhibitors, SAR follow-up, biochemical, luminescence, set 2 (AID 588598); format: functional
T4 sequence (Q9GZR1 whole entry): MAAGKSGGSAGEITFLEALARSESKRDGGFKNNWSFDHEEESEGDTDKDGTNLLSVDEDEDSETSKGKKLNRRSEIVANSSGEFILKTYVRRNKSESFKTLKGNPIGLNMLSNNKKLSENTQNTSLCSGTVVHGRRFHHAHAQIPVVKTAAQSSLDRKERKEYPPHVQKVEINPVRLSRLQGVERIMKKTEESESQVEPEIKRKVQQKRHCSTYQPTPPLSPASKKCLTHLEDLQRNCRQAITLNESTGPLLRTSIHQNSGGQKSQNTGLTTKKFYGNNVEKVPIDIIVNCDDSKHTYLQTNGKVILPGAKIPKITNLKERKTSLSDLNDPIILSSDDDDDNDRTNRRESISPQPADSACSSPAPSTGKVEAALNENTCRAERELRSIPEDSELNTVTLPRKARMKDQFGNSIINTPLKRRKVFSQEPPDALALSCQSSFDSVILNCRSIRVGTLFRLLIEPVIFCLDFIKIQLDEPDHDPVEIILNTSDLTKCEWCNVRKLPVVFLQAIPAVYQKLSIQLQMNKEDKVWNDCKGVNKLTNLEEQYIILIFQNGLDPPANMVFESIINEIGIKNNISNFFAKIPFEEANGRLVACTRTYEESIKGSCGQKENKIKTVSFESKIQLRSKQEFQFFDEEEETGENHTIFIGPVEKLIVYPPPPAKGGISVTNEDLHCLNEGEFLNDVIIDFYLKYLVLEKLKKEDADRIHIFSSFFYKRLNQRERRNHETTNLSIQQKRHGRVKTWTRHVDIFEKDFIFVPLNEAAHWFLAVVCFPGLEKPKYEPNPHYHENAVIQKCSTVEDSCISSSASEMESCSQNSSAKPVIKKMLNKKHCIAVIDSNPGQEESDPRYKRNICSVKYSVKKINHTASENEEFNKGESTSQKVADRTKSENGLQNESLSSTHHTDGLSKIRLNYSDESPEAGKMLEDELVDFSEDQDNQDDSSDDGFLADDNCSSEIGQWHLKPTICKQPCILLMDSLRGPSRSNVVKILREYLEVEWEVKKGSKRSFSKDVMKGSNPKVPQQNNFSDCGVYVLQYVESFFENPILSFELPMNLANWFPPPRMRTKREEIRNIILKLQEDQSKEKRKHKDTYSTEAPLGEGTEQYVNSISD

[5] = biological target: T4, Sentrin-specific protease 6; assay: SAR Analysis of small molecule inhibitors of Sentrin-specific protease 6 (SENP6) using a Luminescent assay. [Related pubchem assays (depositor defined):AID2582, AID2599]; format: functional
[6] = biological target: T4, Sentrin-specific protease 6; format: functional
[7] = biological target: T1, Sentrin-specific protease 8; assay: SENP8 protease inhibitors, SAR follow-up, biochemical, luminescence (AID 504501); format: functional
[8] = biological target: T3, Sentrin-specific protease 7; format: functional
Caspase-3 [9] = biological target: T2, Caspase-3; assay: SAR Analysis of small molecule inhibitors of Sentrin-specific proteases (SENPs) using a Caspase-3 Selectivity assay. [Related pubchem assays (depositor defined):AID2540, AID2599, AID434973, AID489001]; format: functional
Caspase-3 [10] = biological target: T2, Caspase-3; format: functional
[11] = biological target: T1, Sentrin-specific protease 8; format: functional
[12] = biological target: T3, Sentrin-specific protease 7; assay: SENP7 protease inhibitors, SAR follow-up, biochemical, luminescence (AID 504497); format: functional
[13] = biological target: Platelet-activating factor acetylhydrolase (Mus musculus, UniProt Q60963); assay: Late stage assay provider results from the probe development effort to identify inhibitors of plasma platelet activating factor acetylhydrolase (pPAFAH): fluorescence-based dose response biochemical gel-based competitive Activity-Based Protein Profiling (ABPP) assay for HTS compounds. [Related pubchem assays (depositor defined):AID463082, AID463092, AID463230, AID588474]; format: cell-free
Chain of Platelet-activating factor acetylhydrolase (Q60963 whole entry): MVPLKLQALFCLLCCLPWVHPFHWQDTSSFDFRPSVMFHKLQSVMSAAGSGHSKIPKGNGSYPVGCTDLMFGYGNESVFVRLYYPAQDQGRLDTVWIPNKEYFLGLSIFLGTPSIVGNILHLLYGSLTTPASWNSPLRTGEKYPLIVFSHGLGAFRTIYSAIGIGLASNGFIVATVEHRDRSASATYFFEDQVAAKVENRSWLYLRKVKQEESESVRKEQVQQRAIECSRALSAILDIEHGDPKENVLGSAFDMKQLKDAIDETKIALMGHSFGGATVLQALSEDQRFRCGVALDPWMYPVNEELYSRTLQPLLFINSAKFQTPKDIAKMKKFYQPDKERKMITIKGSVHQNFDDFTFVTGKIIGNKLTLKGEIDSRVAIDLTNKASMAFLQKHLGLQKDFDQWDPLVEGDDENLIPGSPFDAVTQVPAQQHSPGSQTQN

O=S(=O)(c1ccc2[nH]cc(/C=N\NC(=S)Nc3cccc(Cl)c3)c2c1)N1CCCCC1
IC50 [1]: > 99 µM (inactive) | IC50 (Caspase-3 [2]): > 99 µM (inactive) | IC50 [3]: > 99 µM (inactive) | IC50 [4]: > 99 µM (inactive)

Cc1cc(O)c(-c2cc(C(=O)Nc3cccnc3)[nH]n2)cc1C
IC50 [5]: > 99 µM (inactive) | IC50 [6]: > 100 µM (inactive) | IC50 [7]: > 99 µM (inactive) | IC50 [8]: 3.61 µM (active) | IC50 (Caspase-3 [9]): 8.64 µM (active) | IC50 (Caspase-3 [10]): 32.2 µM (active) | IC50 [11]: > 100 µM (inactive) | IC50 [12]: 2.97 µM (active)

CN(C)C(=O)Oc1noc2cc(Cl)ccc12
IC50 [13]: 0.234 µM (active)
